Key:
[1] = Amount of peroxide in crospovidone mixed with sodium sulfite (Japanese Pharmacopoeia test method); assay type: physicochemical
Protocol: Further, 1 g crospovidone containing 201 ppm peroxide was accurately taken, and sodium sulfite (amounts: 4 levels i.e. no addition, 0.02%, 0.05% and 0.10%) was added thereto and mixed well, and the amount of the peroxide in the mixture was determined according to a test method described in the Japanese Pharmacopoeia.

[2] = Compatibility test of sodium rabeprazole with additives (residual content by HPLC, visual coloring); assay type: physicochemical; settings: 1 week, cold place sample = 100%; for residual content of sodium rabeprazole, 40° C.-75% RH: 40° C. 75% relative humidity
Protocol: 50 mg sodium rabeprazole and 450 mg additives shown in the table below were mixed in a mortar. The mixture was introduced into a transparent glass vial and stored in a cold place or at 60° C. or 40° C. under 75% relative humidity for 1 week and their content was determined by high performance liquid chromatography. Assuming that the content of the sample stored in the cold place is 100%, the degrees of the residual content under the respective conditions are shown in Tables 1 through 3. Further, their coloring changes were visually evaluated. The sodium rabeprazole used was amorphous in Table land crystalline in Tables 2 and 3. In Table 1, low-substituted hydroxypropyl cellulose (expressed as L-HPC) used as a disintegrating agent in addition to amorphous sodium rabeprazole was blended in the control; in Table 2, a sample further incorporating aluminum hydroxide (expressed as Al(OH) 3 in the table) i.e. an alkaline inorganic salt used as an antacid agent was used; and in Table 3, a sample incorporating polyvinyl pyrrolidone (expressed as PVP in the table) was used as a binder.

[3] = Table 2, crystalline sodium rabeprazole 50 mg + 450 mg additive
[4] = Table 3, crystalline sodium rabeprazole 50 mg + 450 mg additive
[5] = Table 1, amorphous sodium rabeprazole 50 mg + 450 mg additive

O=S([O-])[O-].[Na+].[Na+] [sodium sulfite]
amount of the peroxide in the composition ([1]; 0.02% sodium sulfite added to 1 g crospovidone containing 201 ppm peroxide): 184 ppm
amount of the peroxide in the composition ([1]; 0.05% sodium sulfite added to 1 g crospovidone containing 201 ppm peroxide): 108 ppm
amount of the peroxide in the composition ([1]; 0.10% sodium sulfite added to 1 g crospovidone containing 201 ppm peroxide): 0 ppm

COCCCOc1ccnc(C[S+]([O-])c2nc3ccccc3[nH]2)c1C (stereo not drawn) [sodium rabeprazole (crystalline), sodium rabeprazole]
residual content of sodium rabeprazole, 40° C.-75% RH [2, 3]: 91.8%
residual content of sodium rabeprazole, 60° C. [2, 3]: 99.8%
residual content of sodium rabeprazole, 40° C.-75% RH [2, 4]: 86.9%
residual content of sodium rabeprazole, 60° C. [2, 4]: 97.3%

COCCCOc1ccnc(C[S+]([O-])c2nc3ccccc3[nH]2)c1C (stereo not drawn) [sodium rabeprazole (amorphous), sodium rabeprazole]
residual content of sodium rabeprazole, 40° C.-75% RH [2, 5]: 93.9%
residual content of sodium rabeprazole, 60° C. [2, 5]: 99.1%

From patent US20020039597A1, “STABILIZED COMPOSITIONS CONTAINING BENZIMIDAZOLE-TYPE COMPOUNDS” (priority 1998, published 2002)
